{"source": "patent US10413535B2", "about": "“Pharmaceutical compositions comprising an integrin ALPHA4 antagonist for use in treating ocular inflammatory conditions” (AXEROVISION, INC., priority 2015, dated 2019)", "key": {"[1]": {"assay": "Toxicokinetics in 13-week topical ocular dog study", "details": "beagle, in vivo, topical or ocular", "method": "GW559090A was given to Beagle Dogs by topical ocular administration for 13 weeks. Animals were dosed six or twelve times per day, with one hour between doses. Treatment groups were: (1) vehicle (12 times a day), (2) 30 mg/mL/occasion given six times a day, (3) 50 mg/mL/occasion given six times a day, or (4) 50 mg/mL/occasion, given 12 times a day.\nGW559090A was formulated as a stock solution in 25 mM phosphate buffer with 0.5% sodium chloride to provide a 50 mg/mL stock solution, which was used for administration to Groups 3 or 4, or further diluted with 25 mM phosphate buffer with 0.75% sodium chloride to provide a 30 mg/mL solution for administration to Group 2.\nDuring the 13 week treatment period dogs received daily topical ocular doses of GW559090 or vehicle (12 times a day) at a constant dose volume of 0.06 mL (given 6 or 12 times a day, with one hour between doses). The test article formulation or vehicle was carefully dropped into the everted lower eyelid of the left eye from a suitable distance, to prevent contact of the positive displacement pipette with the eye. The lower and upper lids were then gently held together for approximately five seconds, to prevent loss of dose and aid even distribution across the external ocular surface. The un-dosed eye was not manipulated at any time and served as a within animal untreated control site."}, "α4β1-VCAM-1": {"molecular_target": "T1, α4β1-VCAM-1 (Homo sapiens, UniProt P05556+P13612)", "T1 construct": "characterized in human J6 cells which express VLA-4; endogenous in cells; host or cells: Jurkat J6 cells (human lymphoblast cell line)", "T1 sequence (P13612 34-1032)": "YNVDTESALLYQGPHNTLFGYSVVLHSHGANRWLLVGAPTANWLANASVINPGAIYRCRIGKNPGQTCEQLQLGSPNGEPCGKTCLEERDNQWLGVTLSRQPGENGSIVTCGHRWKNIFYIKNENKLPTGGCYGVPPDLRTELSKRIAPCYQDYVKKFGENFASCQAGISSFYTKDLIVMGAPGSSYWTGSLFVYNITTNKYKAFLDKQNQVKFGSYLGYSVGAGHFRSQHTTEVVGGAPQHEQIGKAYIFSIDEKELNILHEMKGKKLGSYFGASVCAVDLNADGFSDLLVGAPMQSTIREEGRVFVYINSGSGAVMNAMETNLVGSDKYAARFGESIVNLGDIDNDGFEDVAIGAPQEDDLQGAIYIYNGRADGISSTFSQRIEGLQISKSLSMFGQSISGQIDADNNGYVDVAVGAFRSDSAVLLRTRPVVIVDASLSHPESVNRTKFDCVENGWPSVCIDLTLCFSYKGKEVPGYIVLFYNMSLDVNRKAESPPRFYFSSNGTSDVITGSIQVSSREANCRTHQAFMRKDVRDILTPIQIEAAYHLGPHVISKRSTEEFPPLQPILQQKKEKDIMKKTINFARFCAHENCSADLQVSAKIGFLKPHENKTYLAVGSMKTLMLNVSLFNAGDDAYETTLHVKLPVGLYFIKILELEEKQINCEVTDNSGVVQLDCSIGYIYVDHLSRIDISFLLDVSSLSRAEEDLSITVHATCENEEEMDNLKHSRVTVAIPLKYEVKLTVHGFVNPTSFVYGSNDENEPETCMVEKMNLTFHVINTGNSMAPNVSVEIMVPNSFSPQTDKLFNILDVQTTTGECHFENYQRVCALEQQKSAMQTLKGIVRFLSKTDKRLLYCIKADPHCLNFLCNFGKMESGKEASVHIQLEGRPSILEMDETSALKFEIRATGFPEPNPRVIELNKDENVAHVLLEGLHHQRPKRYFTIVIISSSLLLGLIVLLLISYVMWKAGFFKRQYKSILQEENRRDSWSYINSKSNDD", "T1 sequence (P05556 21-798)": "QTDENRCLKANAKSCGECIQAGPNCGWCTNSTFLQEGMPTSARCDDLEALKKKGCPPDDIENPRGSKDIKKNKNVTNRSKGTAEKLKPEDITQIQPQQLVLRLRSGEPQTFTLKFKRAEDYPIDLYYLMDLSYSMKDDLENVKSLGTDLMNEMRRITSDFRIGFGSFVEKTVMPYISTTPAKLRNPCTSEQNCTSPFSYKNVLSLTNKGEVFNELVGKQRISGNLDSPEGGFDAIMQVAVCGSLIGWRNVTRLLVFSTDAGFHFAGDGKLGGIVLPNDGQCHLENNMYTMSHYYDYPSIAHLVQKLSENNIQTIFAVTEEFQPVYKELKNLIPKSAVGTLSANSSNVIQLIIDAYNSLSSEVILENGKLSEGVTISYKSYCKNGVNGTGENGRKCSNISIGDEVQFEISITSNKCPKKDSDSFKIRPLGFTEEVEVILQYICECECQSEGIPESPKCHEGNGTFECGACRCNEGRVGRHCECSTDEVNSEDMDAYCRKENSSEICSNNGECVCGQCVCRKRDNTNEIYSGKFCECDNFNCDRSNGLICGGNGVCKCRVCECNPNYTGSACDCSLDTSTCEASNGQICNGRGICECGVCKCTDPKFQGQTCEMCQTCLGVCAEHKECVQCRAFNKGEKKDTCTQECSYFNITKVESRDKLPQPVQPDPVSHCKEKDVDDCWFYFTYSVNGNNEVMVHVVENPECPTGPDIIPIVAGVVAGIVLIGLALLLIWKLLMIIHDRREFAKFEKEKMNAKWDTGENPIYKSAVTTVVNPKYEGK", "assay": "VCAM cell adhesion assay, Jurkat J6 cells", "type": "cell-based", "details": "J6 cells to VCAM-1; read-out: Inhibition of cell adhesion (IC50)", "method": "Jurkat J6 cells (human lymphoblast cell line) were grown as a suspension culture in RPMI 1640 supplemented with FCS (10%) and glutamine (2 mM). RPMI8866 cells (human B lymphoid cell line) were grown as a suspension culture in RPMI 1640 supplemented with FCS (10%) and glutamine (2 mM). RBL-2H3 cells (rat basophilic cell line) were cultured in Eagle's MEM plus Earles salts supplemented with 2 mM L-glutamine, 1 mM sodium pyruvate, 1× non-essential amino acids, 1 mM Na pyruvate 10% heat inactivated foetal calf serum.\nPolystyrene 96-well microtitre plates were coated with IgG at a concentration of 0.05 mg/mL in bicarbonate buffer for 2 hours at 37° C. The solution was aspirated and the plates washed twice with PBS. The plates were then incubated overnight at 4° C. with a 1:4000 dilution of VCAM-1 of 3% BSA in PBS. Prior to use the VCAM-1 was aspirated and the plates washed twice with PBS.\nJ6 or RPMI cells (as required) were labelled with the fluorescent dye BCECF-AM (10 μM and 6×10^6 cells/mL) for 10 min at 37° C. before the excess was removed by centrifugation at 500 g for 5 min and the cells resuspended at a cell concentration of 1.2×10^7 cells/mL in HBSS. Equal volumes HBSS containing the compound of formula I (over concentration range 38.1 pM to 10 μM) and cells were added to the VCAM-1 coated plates. […] The plates were counted in a Wallac Viktor."}}, "note": "Like-named read-outs stand apart in the source and are kept apart here."}
{"compound": "Cc1ccccc1OCC(=O)N[C@@H](CC(C)C)C(=O)N[C@@H](Cc1ccc(OC(=O)N2CCC(C(N)=O)CC2)cc1)C(=O)O", "note": "[GW559090, (2S)-3-[4-({[4-(Aminocarbonyl)-1-piperidinyl]carbonyl}oxy)phenyl]-2-[((2S)-4-methyl-2-{[2-(2-methylphenoxy)acetyl]amino}pentanoyl)amino]propanoic acid]", "values": [{"measurement": "AUC(0-t)", "setting": "[1]; female, 50 mg/mL/occasion, female dogs, 50 mg/mL, 12 daily doses, Week 13, read-out: AUC0-24", "value": 146, "unit": "ng·h/mL"}, {"measurement": "Cmax", "setting": "[1]; female, 50 mg/mL/occasion, female dogs, 50 mg/mL, 12 daily doses, Week 13, read-out: Cmax", "value": 30.5, "unit": "ng/mL"}, {"measurement": "AUC(0-t)", "setting": "[1]; male, 30 mg/mL/occasion, male dogs, 30 mg/mL, 6 daily doses, Day 1, read-out: AUC0-1", "value": 3.82, "unit": "ng·h/mL"}, {"measurement": "AUC(0-t)", "setting": "[1]; male, 30 mg/mL/occasion, male dogs, 30 mg/mL, 6 daily doses, Day 1, read-out: AUC0-24", "value": 22.9, "unit": "ng·h/mL"}, {"measurement": "Cmax", "setting": "[1]; male, 30 mg/mL/occasion, male dogs, 30 mg/mL, 6 daily doses, Day 1, read-out: Cmax", "value": 7.41, "unit": "ng/mL"}, {"measurement": "Tmax", "setting": "[1]; male, 30 mg/mL/occasion, male dogs, 30 mg/mL, 6 daily doses, Week 4", "value": 15, "unit": "min"}, {"measurement": "AUC(0-t)", "setting": "[1]; male, 30 mg/mL/occasion, male dogs, 30 mg/mL, 6 daily doses, Week 4, read-out: AUC0-1", "value": 2.27, "unit": "ng·h/mL"}, {"measurement": "AUC(0-t)", "setting": "[1]; male, 30 mg/mL/occasion, male dogs, 30 mg/mL, 6 daily doses, Week 4, read-out: AUC0-24", "value": 13.6, "unit": "ng·h/mL"}, {"measurement": "Cmax", "setting": "[1]; male, 30 mg/mL/occasion, male dogs, 30 mg/mL, 6 daily doses, Week 4, read-out: Cmax", "value": 5.3, "unit": "ng/mL"}, {"measurement": "Tmax", "setting": "[1]; male, 30 mg/mL/occasion, male dogs, 30 mg/mL, 6 daily doses, Week 13", "value": 30, "unit": "min"}, {"measurement": "AUC(0-t)", "setting": "[1]; male, 30 mg/mL/occasion, male dogs, 30 mg/mL, 6 daily doses, Week 13, read-out: AUC0-1", "value": 3.81, "unit": "ng·h/mL"}, {"measurement": "AUC(0-t)", "setting": "[1]; male, 30 mg/mL/occasion, male dogs, 30 mg/mL, 6 daily doses, Week 13, read-out: AUC0-24", "value": 22.9, "unit": "ng·h/mL"}, {"measurement": "Cmax", "setting": "[1]; male, 30 mg/mL/occasion, male dogs, 30 mg/mL, 6 daily doses, Week 13, read-out: Cmax", "value": 7.03, "unit": "ng/mL"}, {"measurement": "Tmax", "setting": "[1]; male, 50 mg/mL/occasion, male dogs, 50 mg/mL, 6 daily doses, Day 1", "value": 4.98, "unit": "min"}, {"measurement": "AUC(0-t)", "setting": "[1]; male, 50 mg/mL/occasion, male dogs, 50 mg/mL, 6 daily doses, Day 1, read-out: AUC0-1", "value": 18.4, "unit": "ng·h/mL"}, {"measurement": "AUC(0-t)", "setting": "[1]; male, 50 mg/mL/occasion, male dogs, 50 mg/mL, 6 daily doses, Day 1, read-out: AUC0-24", "value": 110, "unit": "ng·h/mL"}, {"measurement": "Cmax", "setting": "[1]; male, 50 mg/mL/occasion, male dogs, 50 mg/mL, 6 daily doses, Day 1, read-out: Cmax", "value": 52.8, "unit": "ng/mL"}, {"measurement": "Tmax", "setting": "[1]; male, 50 mg/mL/occasion, male dogs, 50 mg/mL, 6 daily doses, Week 4", "value": 10, "unit": "min"}, {"measurement": "AUC(0-t)", "setting": "[1]; male, 50 mg/mL/occasion, male dogs, 50 mg/mL, 6 daily doses, Week 4, read-out: AUC0-1", "value": 8.74, "unit": "ng·h/mL"}, {"measurement": "AUC(0-t)", "setting": "[1]; male, 50 mg/mL/occasion, male dogs, 50 mg/mL, 6 daily doses, Week 4, read-out: AUC0-24", "value": 52.4, "unit": "ng·h/mL"}, {"measurement": "Cmax", "setting": "[1]; male, 50 mg/mL/occasion, male dogs, 50 mg/mL, 6 daily doses, Week 4, read-out: Cmax", "value": 24.2, "unit": "ng/mL"}, {"measurement": "Tmax", "setting": "[1]; male, 50 mg/mL/occasion, male dogs, 50 mg/mL, 6 daily doses, Week 13", "value": 15, "unit": "min"}, {"measurement": "AUC(0-t)", "setting": "[1]; male, 50 mg/mL/occasion, male dogs, 50 mg/mL, 6 daily doses, Week 13, read-out: AUC0-1", "value": 6.36, "unit": "ng·h/mL"}, {"measurement": "AUC(0-t)", "setting": "[1]; male, 50 mg/mL/occasion, male dogs, 50 mg/mL, 6 daily doses, Week 13, read-out: AUC0-24", "value": 38.2, "unit": "ng·h/mL"}, {"measurement": "Cmax", "setting": "[1]; male, 50 mg/mL/occasion, male dogs, 50 mg/mL, 6 daily doses, Week 13, read-out: Cmax", "value": 13.2, "unit": "ng/mL"}, {"measurement": "Tmax", "setting": "[1]; male, 50 mg/mL/occasion, male dogs, 50 mg/mL, 12 daily doses, Day 1", "value": 22.5, "unit": "min"}, {"measurement": "AUC(0-t)", "setting": "[1]; male, 50 mg/mL/occasion, male dogs, 50 mg/mL, 12 daily doses, Day 1, read-out: AUC0-1", "value": 36.6, "unit": "ng·h/mL"}, {"measurement": "AUC(0-t)", "setting": "[1]; male, 50 mg/mL/occasion, male dogs, 50 mg/mL, 12 daily doses, Day 1, read-out: AUC0-24", "value": 439, "unit": "ng·h/mL"}, {"measurement": "Cmax", "setting": "[1]; male, 50 mg/mL/occasion, male dogs, 50 mg/mL, 12 daily doses, Day 1, read-out: Cmax", "value": 69.7, "unit": "ng/mL"}, {"measurement": "Tmax", "setting": "[1]; male, 50 mg/mL/occasion, male dogs, 50 mg/mL, 12 daily doses, Week 4", "value": 15, "unit": "min"}, {"measurement": "AUC(0-t)", "setting": "[1]; male, 50 mg/mL/occasion, male dogs, 50 mg/mL, 12 daily doses, Week 4, read-out: AUC0-1", "value": 11.8, "unit": "ng·h/mL"}, {"measurement": "AUC(0-t)", "setting": "[1]; male, 50 mg/mL/occasion, male dogs, 50 mg/mL, 12 daily doses, Week 4, read-out: AUC0-24", "value": 142, "unit": "ng·h/mL"}, {"measurement": "Cmax", "setting": "[1]; male, 50 mg/mL/occasion, male dogs, 50 mg/mL, 12 daily doses, Week 4, read-out: Cmax", "value": 23.8, "unit": "ng/mL"}, {"measurement": "Tmax", "setting": "[1]; male, 50 mg/mL/occasion, male dogs, 50 mg/mL, 12 daily doses, Week 13", "value": 15, "unit": "min"}, {"measurement": "AUC(0-t)", "setting": "[1]; male, 50 mg/mL/occasion, male dogs, 50 mg/mL, 12 daily doses, Week 13, read-out: AUC0-1", "value": 10.2, "unit": "ng·h/mL"}, {"measurement": "AUC(0-t)", "setting": "[1]; male, 50 mg/mL/occasion, male dogs, 50 mg/mL, 12 daily doses, Week 13, read-out: AUC0-24", "value": 122, "unit": "ng·h/mL"}, {"measurement": "Cmax", "setting": "[1]; male, 50 mg/mL/occasion, male dogs, 50 mg/mL, 12 daily doses, Week 13, read-out: Cmax", "value": 26.8, "unit": "ng/mL"}, {"measurement": "IC50", "setting": "α4β1-VCAM-1", "value": 7.72, "unit": "nM"}]}
